Literature values in US12004493B2, “Late-onset Alzheimer's disease animal model and uses thereof” (The Board of Regents of the University of Oklahoma, priority 2018, dated 2024).

Tested on: early-phase AD patients
Conditions: DAO inhibitor

## O=C([O-])c1ccccc1.[Na+] [Sodium benzoate]
  cognitive and overall functions: improved cognitive and overall functions
